The values below come from patent US8962843B2, “1,3,4-oxadiazole and 1,3,4-thiadiazole beta-lactamase inhibitors” (priority 2012, dated 2015).

Where a name gives a salt, the structure may show the parent alone.

Experiment [1] concerns bacterial strains that express the class D cephalosporinase OXA-15. The experiment can be described thus: Standard BLI potentiation MIC / synergy MIC assays, strains expressing OXA-15. It is filed as cell-based, E. coli. The note with it: in combination with a β-lactam; comparator Avibactam (CCC). The method, then:
(§1) The experimental protocol was performed according to Clinical and Laboratory Standards Institute (CLSI) guidelines with modifications as described below (CLSI guidelines can be derived from the CLSI document M07-A9 published in January 2012: “Methods for Dilution Antimicrobial Susceptibility Tests for Bacteria That Grow Aerobically; Approved Standard-Ninth Edition”).
(§2) To prepare for MIC testing, frozen glycerol stocks of clinical isolates (Klebsiella pneumoniae, Eschericia coli, Enterobacter spp, Citrobacter spp, or Pseudomonas aeruginosa) were used to streak for isolated colonies on rich, non-selective, tryptic soy agar containing 5% sheep's blood (TSAB). Frozen glycerol stocks of laboratory engineered, isogenic E. coli strains, which contain cloned β-lactamase expressing plasmids were used to streak for isolated colonies on rich, selective LB agar supplemented with 25 μg/mL tetracycline to maintain the plasmid. All strains were incubated at 37° C. for 18-24 hrs.
(§3) On the day of testing, primary cultures were started by scraping off 5-10 colonies from the TSAB plates containing clinical strains or the tetracycline supplemented LB plates containing engineered strains. The clinical strain material was suspended in ˜5 mL of cation adjusted Mueller Hinton Broth (CAMHB) in 14 mL culture tubes. The engineered strain material was suspended in CAMHB (supplemented with 25 μg/mL tetracycline) in 14 mL culture tubes. All strains were incubated at 37° C. with aeration (200 rpm) for ˜2 hrs until the optical density at 600 nm (OD600) was >0.1.
(§4) The two compound components of the assay were each diluted in CAMHB and added to the 96-well broth microdilution assay plates. 50 μL of the β-lactam was added to each well of the assay plate in 2-fold dilutions with final concentrations ranging from 128 to 0.13 μg/mL. 25 μL of the BLI compound was added to all wells in the broth microdilution plates at a final concentration of 4 μg/mL. Inoculum cultures were prepared by standardizing the primary cultures to OD600=0.1 and then adding 20 μL of the adjusted primary culture per 1 mL CAMHB for clinical strains or CAMHB (supplemented with tetracycline at 100 μg/mL) for engineered strains, so that the final inoculum density was ˜10^5 colony forming units per milliliter. Diluted inoculum cultures were used to inoculate 25 μl, per well in 96-well broth microdilution assay plates. The final volume of each well was 100 μL and contained a β-lactam at different concentrations, a BLlcompound at 4 μg/mL concentration, the bacterial culture at an OD600 of approximately 0.001 and when necessary tetracycline at 25 μg/mL.
(§5) Plates were incubated for 18-20 hours at 37° C. with aeration (200 rpm). Following incubation, growth was confirmed visually placing plates over a viewing apparatus (stand with a mirror underneath) and then OD600 was measured using a SpectraMax 340PC384 plate reader (Molecular Devices, Sunnyvale, Calif.). Growth was defined as turbidity that could be detected with the naked eye or achieving minimum OD600 of 0.1. MIC values were defined as the lowest concentration producing no visible turbidity.
(§6) The synergy MIC (sMIC) assay determines the concentration of the BLI required to potentiate the activity of a fixed concentration of a β-lactam antibiotic against β-lactamase producing bacterial strains. The experimental protocol was performed according to Clinical and Laboratory Standards Institute (CLSI) guidelines with modifications as described below (CLSI guidelines can be derived from the CLSI document M07-A9 published in January 2012: “Methods for Dilution Antimicrobial Susceptibility Tests for Bacteria That Grow Aerobically; Approved Standard-Ninth Edition”). […]

Experiment [2] concerns bacterial strains that express KPC β-lactamases. Description: Standard BLI potentiation MIC / synergy MIC assays, strains expressing KPC β-lactamases. Format: cell-based. The note with it: in combination with a β-lactam; comparator Avibactam. The method, then:
as §1, §2, §3, §4, §5, §6

Consider `NC1(Cc2nnc([C@@H]3CC[C@@H]4CN3C(=O)N4OS(=O)(=O)O)o2)CC1` [Compound 724, (2S,5R)-2-(5-((1-aminocyclopropyl)methyl)-1,3,4-oxadiazol-2-yl)-7-oxo-1,6-diazabicyclo[3.2.1]octan-6-yl hydrogen sulfate], for which the “activity against bacterial strains that express the class D cephalosporinase OXA-15, compared with Avibactam” value in experiment [1] was “more active than Avibactam”. The “activity and/or spectrum of activity against bacterial strains that express KPC β-lactamases, compared with Avibactam” value in experiment [2] is recorded as “more active than Avibactam for at least one, bacterial strain that expresses KPC β-lactamase and/or show a better spectrum of activity”.
`O=C1N2C[C@@H](CC[C@H]2c2nnc(CNC3CNC3)o2)N1OS(=O)(=O)O` [Compound 726, (2S,5R)-2-(5-((azetidin-3-ylamino)methyl)-1,3,4-oxadiazol-2-yl)-7-oxo-1,6-diazabicyclo[3.2.1]octan-6-yl hydrogen sulfate]: the “activity against bacterial strains that express the class D cephalosporinase OXA-15, compared with Avibactam” value in experiment [1] is “more active than Avibactam”. The “activity and/or spectrum of activity against bacterial strains that express KPC β-lactamases, compared with Avibactam” value in experiment [2] is reported as “more active than Avibactam for at least one, bacterial strain that expresses KPC β-lactamase and/or show a better spectrum of activity”.
Take `N[C@H]1C[C@H](c2nnc([C@@H]3CC[C@@H]4CN3C(=O)N4OS(=O)(=O)O)o2)C1` [Compound 727, (2S,5R)-2-(5-((1r,3S)-3-aminocyclobutyl)-1,3,4-oxadiazol-2-yl)-7-oxo-1,6-diazabicyclo[3.2.1]octan-6-yl hydrogen sulfate]: the “activity against bacterial strains that express the class D cephalosporinase OXA-15, compared with Avibactam” value in experiment [1] is given as “more active than Avibactam”. Moreover, the “activity and/or spectrum of activity against bacterial strains that express KPC β-lactamases, compared with Avibactam” value in experiment [2] is reported as “more active than Avibactam for at least one, bacterial strain that expresses KPC β-lactamase and/or show a better spectrum of activity”.
`N[C@H]1C[C@@H](Cc2nnc([C@@H]3CC[C@@H]4CN3C(=O)N4OS(=O)(=O)O)o2)C1` [Compound 728, (2S,5R)-2-(5-(((1s,3R)-3-aminocyclobutyl)methyl)-1,3,4-oxadiazol-2-yl)-7-oxo-1,6-diazabicyclo[3.2.1]octan-6-yl hydrogen sulfate]: the “activity against bacterial strains that express the class D cephalosporinase OXA-15, compared with Avibactam” value in experiment [1] is given as “more active than Avibactam”. The “activity and/or spectrum of activity against bacterial strains that express KPC β-lactamases, compared with Avibactam” value in experiment [2] is on record as “more active than Avibactam for at least one, bacterial strain that expresses KPC β-lactamase and/or show a better spectrum of activity”.
In the case of `N[C@@H]1CC[C@H](c2nnc([C@@H]3CC[C@@H]4CN3C(=O)N4OS(=O)(=O)O)o2)C1` [Compound 729, (2S,5R)-2-(5-((1S,3R)-3-aminocyclopentyl)-1,3,4-oxadiazol-2-yl)-7-oxo-1,6-diazabicyclo[3.2.1]octan-6-yl hydrogen sulfate], the “activity against bacterial strains that express the class D cephalosporinase OXA-15, compared with Avibactam” value in experiment [1] is reported as “more active than Avibactam”. The “activity and/or spectrum of activity against bacterial strains that express KPC β-lactamases, compared with Avibactam” value in experiment [2] is on record as “more active than Avibactam for at least one, bacterial strain that expresses KPC β-lactamase and/or show a better spectrum of activity”.
For the compound `N=C(N)NCC(O)Cc1nnc([C@@H]2CC[C@@H]3CN2C(=O)N3OS(=O)(=O)O)o1` (stereo partly drawn) [Compound 730, (2S,5R)-2-(5-(3-guanidino-2-hydroxypropyl)-1,3,4-oxadiazol-2-yl)-7-oxo-1,6-diazabicyclo[3.2.1]octan-6-yl hydrogen sulfate], in experiment [1], the “activity against bacterial strains that express the class D cephalosporinase OXA-15, compared with Avibactam” value is “more active than Avibactam”. For the same compound, the “activity and/or spectrum of activity against bacterial strains that express KPC β-lactamases, compared with Avibactam” value in experiment [2] is recorded as “more active than Avibactam for at least one, bacterial strain that expresses KPC β-lactamase and/or show a better spectrum of activity”.
